Legend:
Puccinia recondita [1] = test: Curative control of brown rust on wheat (glass house trial); format: in vivo, Puccinia recondita on wheat; conditions: 63 ppm active compound, sprayed after inoculation, assessed after 8 days; untreated plants 90%
Protocol: (§1) The spray solutions were prepared in several steps: the stock solutions were prepared: a mixture of acetone and/or dimethylsulfoxide and the wetting agent/emulsifier Wettol, which is based on ethoxylated alkylphenoles, in a relation (volume) solvent-emulsifier of 99 to 1 was added to 25 mg of the compound to give a total of 5 ml. Water was then added to total volume of 100 ml. This stock solution was diluted with the described solvent-emulsifier-water mixture to the given concentration.
The first two developed leaves of pot-grown wheat seedling were dusted with spores of Puccinia recondita. To ensure the success the artificial inoculation, the plants were transferred to a humid chamber without light and a relative humidity of 95 to 99% and 20 to 24° C. for 24 hours. The next day the plants were cultivated for 3 days in a greenhouse chamber at 20 to 24° C. and a relative humidity between 65 and 70%. Then the plants were sprayed to run-off with an aqueous suspension, containing the concentration of active ingredient or their mixture as described below. The plants were allowed to air-dry. Then the trial plants were cultivated for 8 days in a greenhouse chamber at 20 to 24° C. and a relative humidity between 65 and 70%. The extent of fungal attack on the leaves was visually assessed as % diseased leaf area.

Puccinia recondita [2] = test: Preventative control of brown rust on wheat (glass house trial); format: in vivo, Puccinia recondita on wheat; conditions: 63 ppm active compound, sprayed 1 day before inoculation, assessed after 6 days; untreated plants 90%
Protocol: as §1
The first two developed leaves of pot-grown wheat seedling were sprayed to run-off with an aqueous suspension, containing the concentration of active ingredient or their mixture as described below. The next day the plants were inoculated with spores of Puccinia recondita. To ensure the success the artificial inoculation, the plants were transferred to a humid chamber without light and a relative humidity of 95 to 99% and 20 to 24° C. for 24 hours. Then the trial plants were cultivated for 6 days in a greenhouse chamber at 20 to 24° C. and a relative humidity between 65 and 70%. The extent of fungal attack on the leaves was visually assessed as % diseased leaf area.

CC(=O)NC1(c2ccc(-c3noc(C(F)(F)F)n3)cc2)CC1 [Ex-2, N-[1-[4-[5-(trifluoromethyl)-1,2,4-oxadiazol-3-yl]phenyl]-cyclopropyl]acetamide] gave a diseased leaf area (Puccinia recondita [1]) of 1% and a diseased leaf area (Puccinia recondita [2]) of 2%.

From patent US10499644B2, “Substituted oxadiazoles for combating phytopathogenic fungi” (BASF SE, priority 2015, dated 2019)
